In one assay the test system is MDA-MB-468. Conditions: 72 h. The method in brief: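 EC50 was fitted from dose-response curves and censored at the highest concentration tested. To build those curves, breast cancer cell lines (20 µl suspension) were seeded into 384-well plates containing compound at 5 concentrations in 10-fold steps over a compound-specific 10,000-fold range and incubated for 72 h. Readouts were CellTox Green fluorescence (485/520 nm) for cell death and then CellTiter-Glo luminescence for viability, with each plate normalised to 0.1 % DMSO and a positive kill control.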

In the next assay the test system is BT-549. Nature of the assay: normalised viability (% of control), CellTiter-Blue; higher = more viable cells (about 100 = DMSO control). As to conditions: incubation time: 72 h. The method in brief:
(§1)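 Seeded at 20 µl suspension per well onto compound-loaded 384-well plates, breast cancer cell lines were incubated 72 h. CellTiter-Blue fluorescence at 560/590 nm was then read, with each plate normalised to vehicle (100) and a positive kill control (0). Normalised viability is reported at a single listed concentration of the series.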
(Alamar Blue is a resazurin reagent that responds to reducing activity.)

Another assay relates to MFM-223. The assay is described as above. Conditions: incubation time: 72 h. In short, it runs like this: as §1
In a further assay the test system is DU-4475. The assay is described as above. Conditions: incubation time: 72 h. In short, it runs like this: as §1
A further assay deals with SK-BR-3. The description is as above. As to conditions: incubation time: 72 h. The method in brief: as §1
The next assay has as its system CAL-51. The description is as above. As to conditions: incubation time: 72 h. In short, it runs like this:
as §1

The next assay has as its system MDA-MB-453. The assay is described as above. As to conditions: incubation time: 72 h. In short, it runs like this: as §1
In a further assay the test system is BT-474. The description is as above. As to conditions: incubation time: 72 h. In short, it runs like this: as §1

Experimental findings from the supplement of paper PMC4862054 are described below.

SMILES strings stand for the structures. Where “and” joins values, the source holds several entries; their conditions need not be identical. Equal entries are not always repeated.

For the compound `CO[C@H]1C[C@@H]2CC[C@@H](C)[C@@](O)(O2)C(=O)C(=O)N2CCCC[C@H]2C(=O)O[C@H]([C@H](C)C[C@@H]2CC[C@@H](OP(C)(C)=O)[C@H](OC)C2)CC(=O)[C@H](C)/C=C(\C)[C@@H](O)[C@@H](OC)C(=O)[C@H](C)C[C@H](C)/C=C/C=C/C=C/1C` [Ridaforolimus], the “EC50, CellTiter-Glo” value with MDA-MB-468 was 0.33 nM. Also, the normalised viability came to 62.3% with BT-549 (1 nM); 62.9% with BT-549 (100 nM); 56.8% with BT-549 (1000 nM); 56.3% with MFM-223 (1 nM); 45% in the assay with MFM-223 (100 nM); 43.3% in the assay with MFM-223 (1000 nM). Further, the normalised viability with DU-4475 (0.3 nM) worked out at 100%; in the assay on DU-4475 (3 nM), 61.7%; in the assay on DU-4475 (10 nM), 57.9%; in the assay on SK-BR-3 (1 nM) it was 79.8%; in the assay with SK-BR-3 (100 nM), 51%; in the assay with SK-BR-3 (1000 nM) it was 42.4%. The normalised viability worked out at 90.1% with CAL-51 (0.3 nM); 56.2% in the assay on CAL-51 (3 nM); 38.6% in the assay on CAL-51 (10 nM); 85.4% in the assay with MDA-MB-453 (0.3 nM); 30% with MDA-MB-453 (3 nM); 24.5% with MDA-MB-453 (10 nM). Further, the normalised viability in the assay with BT-474 (1 nM) was determined as 75.5%; in the assay with BT-474 (100 nM), 63%; in the assay with BT-474 (1000 nM) it was 61.7%.
Regarding `CC(C)C[C@@H](C(=O)N[C@H](C(=O)OC1CCCC1)c1ccccc1)[C@H](O)C(=O)NO` [Tosedostat], the “EC50, CellTiter-Glo” value in the assay on MDA-MB-468 worked out at 75.6 nM. Besides, the normalised viability with BT-549 (10 nM) stood at 85%; with BT-549 (1000 nM), 63%; in the assay on BT-549 (10000 nM), 39.1%; with MFM-223 (10 nM) it was 91.6%; in the assay with MFM-223 (1000 nM) it was 64.1%; with MFM-223 (10000 nM), 32%. Further, the normalised viability in the assay with DU-4475 (3 nM) worked out at 95.7%; with DU-4475 (30 nM), 98.6%; in the assay with DU-4475 (100 nM) it was 68%; in the assay on SK-BR-3 (10 nM) it was 96%; in the assay with SK-BR-3 (1000 nM) it was 85.7%; with SK-BR-3 (10000 nM) it was 63.4%. Further, the normalised viability with CAL-51 (3 nM) is 110%; with CAL-51 (30 nM), 111%; with CAL-51 (100 nM) it was 86.5%; in the assay with MDA-MB-453 (3 nM) it was 119%; in the assay with MDA-MB-453 (30 nM), 101%; with MDA-MB-453 (100 nM), 60.4%. For the same compound, the normalised viability stood at 107% in the assay with BT-474 (10 nM), 101% in the assay on BT-474 (1000 nM) and 105% with BT-474 (10000 nM).
As for `COc1cc2ncnc(Nc3ccc(F)c(Cl)c3)c2cc1OCCCN1CCOCC1` [Gefitinib], the “EC50, CellTiter-Glo” value with MDA-MB-468 turned out to be 2800 nM. Also, the normalised viability in the assay with BT-549 (10 nM) is 92.3% and 89.6%; with BT-549 (1000 nM), 89% and 101%; with BT-549 (10000 nM) it was 65.2% and 59.6%; with MFM-223 (10 nM) it was 89.2% and 87.1%; with MFM-223 (1000 nM), 92.2% and 89%; with MFM-223 (10000 nM) it was 71.9% and 64.2%. The normalised viability in the assay on DU-4475 (3 nM) is 89.8% and 92.1%; with DU-4475 (30 nM), 85.6% and 75.6%; in the assay with DU-4475 (100 nM), 99.3% and 83.1%; with SK-BR-3 (10 nM) it was 88.1% and 97.7%; in the assay on SK-BR-3 (1000 nM) it was 67.2%; in the assay on SK-BR-3 (10000 nM) it was 20.8% and 20.5%. Moreover, the normalised viability was 107% and 110% in the assay on CAL-51 (3 nM); 104% and 106% in the assay on CAL-51 (30 nM); 108% and 102% with CAL-51 (100 nM); 113% and 111% in the assay on MDA-MB-453 (3 nM); 85.4% and 90.8% in the assay with MDA-MB-453 (30 nM); 88.2% and 89.2% with MDA-MB-453 (100 nM). Further, the normalised viability with BT-474 (10 nM) was 104% and 116%; with BT-474 (1000 nM), 58.7% and 65.5%; in the assay on BT-474 (10000 nM), 27.3% and 22.7%.
Consider `CCc1c2c(nc3ccc(OC(=O)N4CCC(N5CCCCC5)CC4)cc13)-c1cc3c(c(=O)n1C2)COC(=O)[C@]3(O)CC` [Irinotecan], for which, in the assay on MDA-MB-468, the “EC50, CellTiter-Glo” value stood at 1620 nM. For the same compound, the normalised viability with BT-549 (10 nM) is 80.8% and 86%; with BT-549 (1000 nM) it was 82.2% and 84.3%; with BT-549 (10000 nM) it was 71% and 62%; with MFM-223 (10 nM), 88.5% and 97%; in the assay on MFM-223 (1000 nM) it was 100% and 99.8%; in the assay on DU-4475 (3 nM), 111% and 115%. Besides, the normalised viability in the assay on DU-4475 (30 nM) was 87.3% and 103%; in the assay on DU-4475 (100 nM), 101% and 93.7%; in the assay with SK-BR-3 (10 nM) it was 92.4% and 108%; with SK-BR-3 (10000 nM), 36.6% and 41.3%; with CAL-51 (3 nM) it was 106% and 120%; in the assay on CAL-51 (30 nM), 99% and 110%. Further, the normalised viability in the assay with CAL-51 (100 nM) was 98.4% and 106%; in the assay on MDA-MB-453 (3 nM) it was 101% and 124%; in the assay on MDA-MB-453 (30 nM), 85.5% and 96.2%; with MDA-MB-453 (100 nM), 99.8% and 110%; with BT-474 (10 nM) it was 102% and 114%; in the assay with BT-474 (1000 nM), 106% and 109%. The normalised viability in the assay with BT-474 (10000 nM) is 97.2% and 105%.
As for `CNC(=O)c1cc(Oc2ccc(NC(=O)Nc3ccc(Cl)c(C(F)(F)F)c3)c(F)c2)ccn1` [Regorafenib], the “EC50, CellTiter-Glo” value with MDA-MB-468 is 6340 nM. The normalised viability turned out to be 98.8% in the assay with BT-549 (10 nM); 102% in the assay on BT-549 (1000 nM); 37.4% in the assay with BT-549 (10000 nM); 107% in the assay with MFM-223 (10 nM); 57.1% in the assay with MFM-223 (1000 nM); 31.2% in the assay on MFM-223 (10000 nM). Moreover, the normalised viability with DU-4475 (3 nM) turned out to be 114%; in the assay with DU-4475 (30 nM) it was 100%; in the assay with DU-4475 (100 nM) it was 120%; with SK-BR-3 (10 nM), 93.5%; with SK-BR-3 (1000 nM) it was 95.8%; with SK-BR-3 (10000 nM) it was 72.2%. Also, the normalised viability was found to be 106% with CAL-51 (3 nM); 106% in the assay on CAL-51 (30 nM); 104% with CAL-51 (100 nM); 102% in the assay with MDA-MB-453 (3 nM); 109% in the assay on MDA-MB-453 (30 nM); 101% in the assay on MDA-MB-453 (100 nM). The figures for the normalised viability in the assay with BT-474 (10 nM), in the assay on BT-474 (1000 nM) and in the assay on BT-474 (10000 nM) were 94.5%, 103% and 38.8%, respectively.
Turning to `COc1cc2/c(=N/c3ccc(Br)cc3F)nc[nH]c2cc1OCC1CCN(C)CC1` [Vandetanib], the “EC50, CellTiter-Glo” value in the assay on MDA-MB-468 stood at 7.82 nM. Besides, the normalised viability in the assay with BT-549 (10 nM) was 102%; in the assay on BT-549 (1000 nM), 85.2%; in the assay with BT-549 (10000 nM), 22.4%; with MFM-223 (10 nM), 100%; in the assay on MFM-223 (1000 nM), 61.6%; in the assay on MFM-223 (10000 nM), 30.6%. Further, the normalised viability in the assay on DU-4475 (3 nM) is 108%; in the assay on DU-4475 (30 nM), 102%; in the assay on DU-4475 (100 nM) it was 106%; in the assay on SK-BR-3 (10 nM) it was 100%; with SK-BR-3 (1000 nM) it was 96.4%; with SK-BR-3 (10000 nM) it was 14.3%. For the same compound, the normalised viability in the assay on CAL-51 (3 nM) came out at 105%; in the assay with CAL-51 (30 nM) it was 107%; in the assay on CAL-51 (100 nM), 92.3%; in the assay on MDA-MB-453 (3 nM), 89.6%; in the assay with MDA-MB-453 (30 nM), 94.4%; in the assay with MDA-MB-453 (100 nM) it was 91.4%. Further, the normalised viability came to 92.7% in the assay with BT-474 (10 nM), 78.8% in the assay on BT-474 (1000 nM) and 8.47% in the assay with BT-474 (10000 nM).
